In ChEMBL document CHEMBL3525949, “Role of organic anion-transporting polypeptides for cellular mesalazine (5-aminosalicylic acid) uptake” (Drug Metab Dispos, 2011):

What was measured:
Type in all cases: ADME, cell-based
[1] = Drug uptake in human SCLO1B1*15 mutant expressed HEK293 cells assessed as net uptake measured per mg of protein
OATP1B1 = molecular target: T1, OATP1B1 (Homo sapiens, UniProt Q9Y6L6); assay: Drug uptake in human OATP1B1 expressed HEK293 cells at 20 uM relative to control cells; settings: HEK293 cells expressing human OATP1B1, read-out: FC
T1 sequence (Q9Y6L6 whole entry): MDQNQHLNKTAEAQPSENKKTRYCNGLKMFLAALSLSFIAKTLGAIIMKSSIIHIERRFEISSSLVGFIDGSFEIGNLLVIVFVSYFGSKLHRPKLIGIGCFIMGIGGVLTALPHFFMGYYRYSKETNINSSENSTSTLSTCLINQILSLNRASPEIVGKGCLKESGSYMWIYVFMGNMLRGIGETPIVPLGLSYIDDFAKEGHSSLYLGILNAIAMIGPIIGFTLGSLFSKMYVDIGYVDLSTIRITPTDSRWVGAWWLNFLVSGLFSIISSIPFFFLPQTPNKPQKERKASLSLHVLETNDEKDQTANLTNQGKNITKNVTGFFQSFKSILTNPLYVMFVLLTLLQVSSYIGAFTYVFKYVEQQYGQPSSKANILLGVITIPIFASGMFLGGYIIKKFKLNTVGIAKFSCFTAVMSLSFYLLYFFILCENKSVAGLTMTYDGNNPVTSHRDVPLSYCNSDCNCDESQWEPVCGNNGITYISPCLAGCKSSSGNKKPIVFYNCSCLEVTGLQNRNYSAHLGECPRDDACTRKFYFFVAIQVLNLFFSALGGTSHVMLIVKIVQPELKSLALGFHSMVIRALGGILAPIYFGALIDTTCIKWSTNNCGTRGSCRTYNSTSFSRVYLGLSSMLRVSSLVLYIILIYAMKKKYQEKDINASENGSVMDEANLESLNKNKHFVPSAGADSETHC

SCLO1B1*1a mutant = assay: Drug uptake in human SCLO1B1*1a mutant expressed HEK293 cells assessed as net uptake; settings: HEK293 cells expressing human SCLO1B1*1a mutant
[2] = molecular target: T2, Solute carrier organic anion transporter family member 1B3 (Homo sapiens, UniProt Q9NPD5); assay: Drug uptake in human OATP1B3 expressed HEK293 cells assessed as net uptake measured per mg of protein
T2 sequence (Q9NPD5 whole entry): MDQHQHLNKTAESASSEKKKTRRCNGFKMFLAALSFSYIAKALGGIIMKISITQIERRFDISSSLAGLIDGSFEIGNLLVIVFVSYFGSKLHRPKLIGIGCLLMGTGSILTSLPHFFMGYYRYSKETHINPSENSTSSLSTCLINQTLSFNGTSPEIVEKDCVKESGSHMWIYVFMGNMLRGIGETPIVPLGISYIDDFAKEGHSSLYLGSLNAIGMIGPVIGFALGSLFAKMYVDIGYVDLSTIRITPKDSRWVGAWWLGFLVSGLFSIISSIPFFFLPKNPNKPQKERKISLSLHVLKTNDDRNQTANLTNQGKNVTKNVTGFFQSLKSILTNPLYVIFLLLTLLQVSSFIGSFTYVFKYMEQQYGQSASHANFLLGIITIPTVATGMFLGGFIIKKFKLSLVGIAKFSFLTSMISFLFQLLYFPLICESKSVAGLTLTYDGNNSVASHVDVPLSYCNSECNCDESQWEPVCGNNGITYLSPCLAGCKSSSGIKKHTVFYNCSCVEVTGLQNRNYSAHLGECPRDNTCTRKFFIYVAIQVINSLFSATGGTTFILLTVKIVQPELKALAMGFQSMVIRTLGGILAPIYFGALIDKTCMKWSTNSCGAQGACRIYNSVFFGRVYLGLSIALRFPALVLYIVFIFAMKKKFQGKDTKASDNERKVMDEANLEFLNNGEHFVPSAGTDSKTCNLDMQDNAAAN

[3] = Drug uptake in human SCLO1B1*5 mutant expressed HEK293 cells assessed as net uptake measured per mg of protein
[4] = molecular target: T3, Solute carrier organic anion transporter family member 1A2 (Homo sapiens, UniProt P46721); assay: Inhibition of human OATP1A2 expressed HEK293 cells assessed as inhibition of [3H]sulfobromophthalein uptake by liquid scintillation counting
T3 sequence (P46721 whole entry): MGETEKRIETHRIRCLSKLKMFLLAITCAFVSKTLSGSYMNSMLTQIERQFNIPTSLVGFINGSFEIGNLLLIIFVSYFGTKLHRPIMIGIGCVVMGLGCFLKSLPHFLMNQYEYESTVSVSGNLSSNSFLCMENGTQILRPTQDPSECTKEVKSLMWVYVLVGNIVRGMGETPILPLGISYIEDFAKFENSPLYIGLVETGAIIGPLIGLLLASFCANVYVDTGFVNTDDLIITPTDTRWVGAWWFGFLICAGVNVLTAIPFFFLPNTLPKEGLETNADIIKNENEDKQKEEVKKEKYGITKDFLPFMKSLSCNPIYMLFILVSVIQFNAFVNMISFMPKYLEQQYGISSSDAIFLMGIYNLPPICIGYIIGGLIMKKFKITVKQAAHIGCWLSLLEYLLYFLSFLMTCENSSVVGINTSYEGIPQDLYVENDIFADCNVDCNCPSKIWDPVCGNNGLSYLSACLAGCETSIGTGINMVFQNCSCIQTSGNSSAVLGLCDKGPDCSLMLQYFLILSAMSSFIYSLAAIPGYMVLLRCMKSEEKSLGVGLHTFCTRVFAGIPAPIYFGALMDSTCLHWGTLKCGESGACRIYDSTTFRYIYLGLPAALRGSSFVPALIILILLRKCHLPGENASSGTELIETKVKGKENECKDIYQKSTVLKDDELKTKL

SCLO1B1*1b mutant = assay: Drug uptake in human SCLO1B1*1b mutant expressed HEK293 cells assessed as net uptake; settings: HEK293 cells expressing human SCLO1B1*1b mutant
[5] = Drug uptake in human SCLO1B1*1b mutant expressed HEK293 cells assessed as net uptake measured per mg of protein
SCLO1B1*5 mutant = assay: Drug uptake in human SCLO1B1*5 mutant expressed HEK293 cells assessed as net uptake; settings: HEK293 cells expressing human SCLO1B1*5 mutant
[6] = molecular target: T4, Solute carrier organic anion transporter family member 1B1 (Homo sapiens, UniProt Q9Y6L6); assay: Inhibition of human OATP1B1 expressed HEK293 cells assessed as inhibition of [3H]sulfobromophthalein uptake by liquid scintillation counting
T4 sequence (Q9Y6L6 whole entry): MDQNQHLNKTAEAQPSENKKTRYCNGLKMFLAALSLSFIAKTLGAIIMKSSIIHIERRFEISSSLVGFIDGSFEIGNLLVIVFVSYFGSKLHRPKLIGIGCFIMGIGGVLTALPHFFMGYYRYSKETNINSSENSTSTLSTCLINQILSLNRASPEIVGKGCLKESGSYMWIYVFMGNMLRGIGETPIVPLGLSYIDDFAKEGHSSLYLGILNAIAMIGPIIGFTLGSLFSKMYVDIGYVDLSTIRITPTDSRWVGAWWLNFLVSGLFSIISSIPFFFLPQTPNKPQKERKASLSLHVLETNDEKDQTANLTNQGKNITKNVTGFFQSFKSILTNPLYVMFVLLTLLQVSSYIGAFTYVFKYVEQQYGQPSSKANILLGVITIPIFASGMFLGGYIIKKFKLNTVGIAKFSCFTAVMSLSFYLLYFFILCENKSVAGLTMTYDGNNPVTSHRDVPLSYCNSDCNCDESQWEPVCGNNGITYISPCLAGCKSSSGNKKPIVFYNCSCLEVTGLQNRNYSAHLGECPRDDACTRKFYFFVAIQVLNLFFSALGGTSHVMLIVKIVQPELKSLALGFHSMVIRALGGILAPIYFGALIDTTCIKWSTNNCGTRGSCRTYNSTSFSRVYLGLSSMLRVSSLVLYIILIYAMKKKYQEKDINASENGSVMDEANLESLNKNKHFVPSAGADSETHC

OATP1B3 [7] = molecular target: T5, OATP1B3 (Homo sapiens, UniProt Q9NPD5); assay: Drug uptake in human OATP1B3 expressed HEK293 cells assessed as net uptake; settings: HEK293 cells expressing human OATP1B3
T5 sequence (Q9NPD5 whole entry): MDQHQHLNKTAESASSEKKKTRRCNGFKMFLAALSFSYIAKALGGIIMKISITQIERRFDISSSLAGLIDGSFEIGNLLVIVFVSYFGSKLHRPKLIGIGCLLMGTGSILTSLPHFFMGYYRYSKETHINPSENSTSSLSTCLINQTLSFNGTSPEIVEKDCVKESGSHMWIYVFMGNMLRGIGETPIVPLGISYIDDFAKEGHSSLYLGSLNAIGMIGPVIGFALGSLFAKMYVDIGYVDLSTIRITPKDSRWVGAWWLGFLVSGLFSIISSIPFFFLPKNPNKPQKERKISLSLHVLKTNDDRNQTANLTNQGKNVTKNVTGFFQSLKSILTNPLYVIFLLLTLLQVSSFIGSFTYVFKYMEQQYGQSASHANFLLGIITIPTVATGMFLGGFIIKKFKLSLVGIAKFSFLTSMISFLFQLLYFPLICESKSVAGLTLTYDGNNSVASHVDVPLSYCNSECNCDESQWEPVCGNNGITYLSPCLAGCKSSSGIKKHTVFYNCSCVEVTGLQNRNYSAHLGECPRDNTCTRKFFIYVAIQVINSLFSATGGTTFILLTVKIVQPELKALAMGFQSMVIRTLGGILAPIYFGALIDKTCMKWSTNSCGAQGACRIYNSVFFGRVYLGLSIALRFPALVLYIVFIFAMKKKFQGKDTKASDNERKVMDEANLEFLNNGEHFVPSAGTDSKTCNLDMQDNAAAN

[8] = molecular target: T6, Solute carrier organic anion transporter family member 2B1 (Homo sapiens, UniProt O94956); assay: Inhibition of human OATP2B1 expressed HEK293 cells assessed as inhibition of [3H]sulfobromophthalein uptake by liquid scintillation counting
T6 sequence (O94956 whole entry): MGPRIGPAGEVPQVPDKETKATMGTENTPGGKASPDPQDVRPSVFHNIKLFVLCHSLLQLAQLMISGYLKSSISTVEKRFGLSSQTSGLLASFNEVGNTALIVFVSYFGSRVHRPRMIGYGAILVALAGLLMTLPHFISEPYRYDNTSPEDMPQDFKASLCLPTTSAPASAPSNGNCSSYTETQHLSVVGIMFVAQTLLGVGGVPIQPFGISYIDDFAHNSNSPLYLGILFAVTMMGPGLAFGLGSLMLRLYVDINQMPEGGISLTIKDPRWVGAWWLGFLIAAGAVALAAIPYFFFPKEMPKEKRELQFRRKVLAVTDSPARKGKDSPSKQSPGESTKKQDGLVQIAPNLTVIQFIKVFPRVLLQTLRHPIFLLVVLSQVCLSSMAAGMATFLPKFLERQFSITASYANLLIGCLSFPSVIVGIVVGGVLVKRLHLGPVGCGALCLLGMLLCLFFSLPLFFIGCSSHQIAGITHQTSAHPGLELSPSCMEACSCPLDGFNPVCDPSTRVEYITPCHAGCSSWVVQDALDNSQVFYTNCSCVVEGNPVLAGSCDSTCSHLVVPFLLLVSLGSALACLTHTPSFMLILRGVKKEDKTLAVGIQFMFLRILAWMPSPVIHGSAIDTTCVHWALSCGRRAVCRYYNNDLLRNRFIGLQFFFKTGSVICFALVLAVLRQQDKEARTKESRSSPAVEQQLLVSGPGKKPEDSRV

SCLO1B1*15 mutant = assay: Drug uptake in human SCLO1B1*15 mutant expressed HEK293 cells assessed as net uptake; settings: HEK293 cells expressing human SCLO1B1*15 mutant
OATP1B3 [9] = molecular target: T5, OATP1B3; assay: Drug uptake in human OATP1B3 expressed HEK293 cells at 20 uM relative to control cells; settings: HEK293 cells expressing human OATP1B3, read-out: FC
[10] = Drug uptake in human SCLO1B1*1a mutant expressed HEK293 cells assessed as net uptake measured per mg of protein
OATP2B1 = molecular target: T7, OATP2B1 (Homo sapiens, UniProt O94956); assay: Drug uptake in human OATP2B1 expressed HEK293 cells at 20 uM relative to control cells; settings: HEK293 cells expressing human OATP2B1, read-out: FC
T7 sequence (O94956 whole entry): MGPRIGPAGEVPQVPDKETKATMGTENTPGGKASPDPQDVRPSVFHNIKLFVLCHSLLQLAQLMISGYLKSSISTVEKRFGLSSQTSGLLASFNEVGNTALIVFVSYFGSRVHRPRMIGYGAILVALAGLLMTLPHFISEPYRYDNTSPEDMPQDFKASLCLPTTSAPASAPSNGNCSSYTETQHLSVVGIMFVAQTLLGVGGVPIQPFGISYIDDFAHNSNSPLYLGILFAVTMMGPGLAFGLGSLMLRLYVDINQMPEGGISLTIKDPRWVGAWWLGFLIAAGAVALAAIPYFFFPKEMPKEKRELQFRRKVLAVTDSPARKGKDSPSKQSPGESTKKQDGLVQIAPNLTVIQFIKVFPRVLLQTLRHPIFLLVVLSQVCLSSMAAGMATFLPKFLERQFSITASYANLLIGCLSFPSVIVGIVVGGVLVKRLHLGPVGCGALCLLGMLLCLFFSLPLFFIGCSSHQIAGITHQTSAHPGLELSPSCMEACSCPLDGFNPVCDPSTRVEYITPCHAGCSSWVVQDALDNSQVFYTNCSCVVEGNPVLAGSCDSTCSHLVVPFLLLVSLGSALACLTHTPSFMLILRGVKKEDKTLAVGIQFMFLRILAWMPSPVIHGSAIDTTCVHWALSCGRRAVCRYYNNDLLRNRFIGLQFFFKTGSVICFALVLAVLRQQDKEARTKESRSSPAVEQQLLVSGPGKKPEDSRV

[11] = molecular target: T2, Solute carrier organic anion transporter family member 1B3; assay: Inhibition of human OATP1B3 expressed HEK293 cells assessed as inhibition of [3H]sulfobromophthalein uptake by liquid scintillation counting

SMILES: Nc1ccc(O)c(C(=O)O)c1 [MESALAMINE]
- Vmax [1]: 9.3 pmol/min
- uptake ratio at 20 µM (OATP1B1): 2.7
- Km (SCLO1B1*1a mutant): 55.1 µM
- Vmax [2]: 85.1 pmol/min
- Vmax [3]: 6.1 pmol/min
- inhibition (INH) [4]: Dose-dependent effect
- Km (SCLO1B1*1b mutant): 16.3 µM
- Vmax [5]: 3.8 pmol/min
- Km (SCLO1B1*5 mutant): 24.3 µM
- inhibition (INH) [6]: Dose-dependent effect
- Km (OATP1B3 [7]): 77.4 µM
- inhibition (INH) [8]: Dose-dependent effect
- Km (SCLO1B1*15 mutant): 32.4 µM
- uptake ratio at 20 µM (OATP1B3 [9]): 2.9
- Vmax [10]: 28.3 pmol/min
- uptake ratio at 20 µM (OATP2B1): 2
- inhibition (INH) [11]: Dose-dependent effect
